pIC50: −log10 of the molar value.
Key:
[1] = target: human recombinant cytochrome P450 2C19 (Homo sapiens, UniProt P33261); experiment: Biological Test Example 8: CYP2C19 inhibition ([N-methyl-14C]-Diazepam N-demethylation)
[2] = target: human recombinant cytochrome P450 3A4 (Homo sapiens, UniProt P08684)
[3] = target: human recombinant cytochrome P450 2C9 (Homo sapiens, UniProt P11712); experiment: Biological Test Example 7: CYP2C9 inhibition ([O-methyl-14C]-Naproxen O-demethylation)
Plasma protein = experiment: Biological Test Example 5: fraction unbound in human plasma (equilibrium dialysis); assay type: in vitro ADME

Sequence of human recombinant cytochrome P450 2C9 (P11712 whole entry): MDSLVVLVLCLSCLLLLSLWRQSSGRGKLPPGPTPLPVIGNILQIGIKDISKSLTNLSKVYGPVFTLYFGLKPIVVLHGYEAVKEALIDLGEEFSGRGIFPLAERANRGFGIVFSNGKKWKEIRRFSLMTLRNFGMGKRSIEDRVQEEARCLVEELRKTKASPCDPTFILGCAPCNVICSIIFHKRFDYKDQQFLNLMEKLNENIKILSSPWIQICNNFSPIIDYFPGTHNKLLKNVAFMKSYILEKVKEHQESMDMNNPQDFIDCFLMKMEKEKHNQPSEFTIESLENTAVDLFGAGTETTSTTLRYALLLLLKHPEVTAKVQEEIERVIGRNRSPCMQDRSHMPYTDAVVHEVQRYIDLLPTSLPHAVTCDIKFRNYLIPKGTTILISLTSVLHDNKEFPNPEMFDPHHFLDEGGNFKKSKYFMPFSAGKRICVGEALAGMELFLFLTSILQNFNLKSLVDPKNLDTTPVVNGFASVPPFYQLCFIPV
Sequence of human recombinant cytochrome P450 3A4 (P08684 whole entry): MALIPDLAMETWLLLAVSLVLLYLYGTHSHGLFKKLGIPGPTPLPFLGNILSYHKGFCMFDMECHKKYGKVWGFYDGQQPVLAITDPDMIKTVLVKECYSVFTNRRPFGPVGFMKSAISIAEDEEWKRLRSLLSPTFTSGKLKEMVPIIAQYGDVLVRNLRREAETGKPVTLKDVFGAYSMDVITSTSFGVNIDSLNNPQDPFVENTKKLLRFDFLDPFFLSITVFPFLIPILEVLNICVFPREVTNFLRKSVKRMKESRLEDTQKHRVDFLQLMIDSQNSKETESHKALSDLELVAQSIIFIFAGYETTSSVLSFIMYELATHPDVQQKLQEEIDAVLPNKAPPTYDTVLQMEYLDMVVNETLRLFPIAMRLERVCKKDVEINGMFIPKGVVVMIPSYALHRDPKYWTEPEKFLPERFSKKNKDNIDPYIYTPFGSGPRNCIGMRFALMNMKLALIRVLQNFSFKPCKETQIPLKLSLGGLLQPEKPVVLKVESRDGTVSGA
Sequence of human recombinant cytochrome P450 2C19 (P33261 whole entry): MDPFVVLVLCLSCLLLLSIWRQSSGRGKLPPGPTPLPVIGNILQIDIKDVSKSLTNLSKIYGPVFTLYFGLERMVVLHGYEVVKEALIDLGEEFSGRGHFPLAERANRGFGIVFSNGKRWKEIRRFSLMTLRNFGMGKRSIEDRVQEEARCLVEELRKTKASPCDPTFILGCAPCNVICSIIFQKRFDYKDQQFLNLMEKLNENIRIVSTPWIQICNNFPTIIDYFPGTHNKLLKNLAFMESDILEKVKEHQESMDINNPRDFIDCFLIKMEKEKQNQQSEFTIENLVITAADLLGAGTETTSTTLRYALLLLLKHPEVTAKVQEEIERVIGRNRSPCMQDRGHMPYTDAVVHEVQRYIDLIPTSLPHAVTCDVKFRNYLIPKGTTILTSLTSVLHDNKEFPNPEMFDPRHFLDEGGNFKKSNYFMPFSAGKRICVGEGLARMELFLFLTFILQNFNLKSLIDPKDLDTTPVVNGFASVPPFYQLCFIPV

| SMILES | pIC50 [1] | pIC50 [2] | pIC50 [3] | Biological Test Example 5 (%) (Plasma protein; Examples) | Biological Test Example 5 (%) (Plasma protein; Comparator Compounds) |
| --- | --- | --- | --- | --- | --- |
| CC(C)n1cc(-c2ccc([C@H](C)N3CC[C@](CC(C)(C)O)(c4ccccc4)OC3=O)cc2)ccc1=O [Example 59, (S)-6-(2-hydroxy-2-methylpropyl)-3-((S)-1-(4-(1-isopropyl-6-oxo-1,6-dihydropyridin-3-yl)phenyl)ethyl)-6-phenyl-1,3-oxazinan-2-one] | 4.43 | – | – | – | – |
| C[C@@H](c1ccc(-c2ccn(CC(F)(F)F)c(=O)c2)cc1)N1CC[C@](CC(C)(C)O)(c2ccccc2)OC1=O [Example 66, (S)-6-(2-hydroxy-2-methylpropyl)-3-((S)-1-(4-(2-oxo-1-(2,2,2-trifluoroethyl)-1,2-dihydropyridin-4-yl)phenyl)ethyl)-6-phenyl-1,3-oxazinan-2-one] | 4.96 | 4.74 | 5.00 | 5.5% | – |
| C[C@@H](c1ccc(-c2ccc(=O)n(C)c2)cc1)N1CC[C@](CC(C)(C)NS(C)(=O)=O)(c2ccccc2)OC1=O [Example 11, N-(2-methyl-1-((S)-3-((S)-1-(4-(1-methyl-6-oxo-1,6-dihydropyridin-3-yl)phenyl)ethyl)-2-oxo-6-phenyl-1,3-oxazinan-6-yl)propan-2-yl)methanesulfonamide] | – | – | – | – | 0.7% |
| C[C@@H](c1ccc(-c2ccn(C)c(=O)c2)cc1)N1CC[C@](CC(C)(C)O)(c2ccccc2)OC1=O [Example 48, (S)-6-(2-hydroxy-2-methylpropyl)-3-((S)-1-(4-(1-methyl-2-oxo-1,2-dihydropyridin-4-yl)phenyl)ethyl)-6-phenyl-1,3-oxazinan-2-one] | – | – | – | 8.7% | – |
| CCn1cc(-c2ccc([C@H](C)N3CC[C@](CC(C)(C)O)(c4ccccc4)OC3=O)cc2)cc(C)c1=O [Example 70, (S)-3-((S)-1-(4-(1-ethyl-5-methyl-6-oxo-1,6-dihydropyridin-3-yl)phenyl)ethyl)-6-(2-hydroxy-2-methylpropyl)-6-phenyl-1,3-oxazinan-2-one] | 4.64 | 4.55 | – | – | – |
| C[C@@H](c1ccc(-c2ccc(=O)n(C)c2)cc1)N1CC[C@](CC(C)(C)C#N)(c2ccc(F)cc2)OC1=O [Example 69, 3-((R)-6-(4-fluorophenyl)-3-((S)-1-(4-(1-methyl-6-oxo-1,6-dihydropyridin-3-yl)phenyl)ethyl)-2-oxo-1,3-oxazinan-6-yl)-2,2-dimethylpropanenitrile] | – | 4.64 | 4.42 | – | – |
| CCn1cc(-c2ccc([C@H](C)N3CC[C@](CC(C)(C)O)(c4ccccc4)OC3=O)cc2)ccc1=O [Example 53, (S)-3-((S)-1-(4-(1-ethyl-6-oxo-1,6-dihydropyridin-3-yl)phenyl)ethyl)-6-(2-hydroxy-2-methylpropyl)-6-phenyl-1,3-oxazinan-2-one] | – | – | – | 12.8% | – |
| CCn1c(C)cc(-c2ccc([C@H](C)N3CC[C@](CC(C)(C)O)(c4ccccc4)OC3=O)cc2)cc1=O [Example 72, (S)-3-((S)-1-(4-(1-ethyl-6-methyl-2-oxo-1,2-dihydropyridin-4-yl)phenyl)ethyl)-6-(2-hydroxy-2-methylpropyl)-6-phenyl-1,3-oxazinan-2-one] | 5.10 | 4.39 | 4.46 | – | – |
| CCn1cc(-c2ccc([C@H](C)N3CC[C@](CC(C)(C)O)(c4ccc(F)cc4)OC3=O)cc2)ccc1=O [Example 62, (S)-3-((S)-1-(4-(1-ethyl-6-oxo-1,6-dihydropyridin-3-yl)phenyl)ethyl)-6-(4-fluorophenyl)-6-(2-hydroxy-2-methylpropyl)-1,3-oxazinan-2-one] | 4.42 | 4.32 | – | – | – |
| Cc1cc(-c2ccc([C@H](C)N3CC[C@](CC(C)(C)O)(c4ccccc4)OC3=O)cc2)cc(=O)n1C [Example 64, (S)-3-((S)-1-(4-(1,6-dimethyl-2-oxo-1,2-dihydropyridin-4-yl)phenyl)ethyl)-6-(2-hydroxy-2-methylpropyl)-6-phenyl-1,3-oxazinan-2-one] | 4.77 | – | 4.48 | – | – |
| C[C@@H](c1ccc(-c2ccc(=O)n(C(F)F)c2)cc1)N1CC[C@](CC(C)(C)O)(c2ccccc2)OC1=O [Example 4, (S)-3-((S)-1-(4-(1-(difluoromethyl)-6-oxo-1,6-dihydropyridin-3-yl)phenyl)ethyl)-6-(2-hydroxy-2-methylpropyl)-6-phenyl-1,3-oxazinan-2-one] | – | 4.68 | 4.77 | – | – |
| CC[C@@H](c1ccc(-c2ccn(C)c(=O)c2)cc1)N1CC[C@](CC)(c2ccccc2)OC1=O [Example 58, (R)-6-ethyl-3-((S)-1-(4-(1-methyl-2-oxo-1,2-dihydropyridin-4-yl)phenyl)propyl)-6-phenyl-1,3-oxazinan-2-one] | 5.70 | 5.10 | 5.52 | – | – |
| Cc1cc(-c2ccc([C@H](C)N3CC[C@](CC(C)(C)O)(c4ccccc4)OC3=O)cc2)cn(C)c1=O [Example 61, (S)-3-((S)-1-(4-(1,5-dimethyl-6-oxo-1,6-dihydropyridin-3-yl)phenyl)ethyl)-6-(2-hydroxy-2-methylpropyl)-6-phenyl-1,3-oxazinan-2-one] | 4.74 | – | 4.40 | – | – |
| C[C@@H](c1ccc(-c2ccc(=O)n(C3CC3)c2)cc1)N1CC[C@](CC(C)(C)O)(c2ccccc2)OC1=O [Example 3, (S)-3-((S)-1-(4-(1-cyclopropyl-6-oxo-1,6-dihydropyridin-3-yl)phenyl)ethyl)-6-(2-hydroxy-2-methylpropyl)-6-phenyl-1,3-oxazinan-2-one] | – | 4.36 | 4.42 | – | 0.3% |
| C[C@@H](c1ccc(-c2ccc(=O)n(C)c2)cc1)N1CC[C@](CCCO)(c2ccccc2)OC1=O [Example 30, (R)-6-(3-hydroxypropyl)-3-((S)-1-(4-(1-methyl-6-oxo-1,6-dihydropyridin-3-yl)phenyl)ethyl)-6-phenyl-1,3-oxazinan-2-one] | 4.57 | – | – | 13.9% | – |
| CC[C@@H](c1ccc(-c2ccc(=O)n(CC)c2)cc1)N1CC[C@](CC(C)(C)O)(c2ccccc2)OC1=O [Example 52, (S)-3-((S)-1-(4-(1-ethyl-6-oxo-1,6-dihydropyridin-3-yl)phenyl)propyl)-6-(2-hydroxy-2-methylpropyl)-6-phenyl-1,3-oxazinan-2-one] | – | – | – | 9.0% | – |
| C[C@@H](c1ccc(-c2ccn(CCF)c(=O)c2)cc1)N1CC[C@](CC(C)(C)O)(c2ccccc2)OC1=O [Example 25, (S)-3-((S)-1-(4-(1-(2-fluoroethyl)-2-oxo-1,2-dihydropyridin-4-yl)phenyl)ethyl)-6-(2-hydroxy-2-methylpropyl)-6-phenyl-1,3-oxazinan-2-one] | – | 4.48 | 4.52 | – | – |

Second part, led by results:

| pIC50 [1] | pIC50 [2] | pIC50 [3] | SMILES | Biological Test Example 5 (%) (Plasma protein; Examples) | Biological Test Example 5 (%) (Plasma protein; Comparator Compounds) |
| --- | --- | --- | --- | --- | --- |
| – | 4.54 | – | C[C@@H](c1ccc(-c2ccn(C(F)F)c(=O)c2)cc1)N1CC[C@](CC(C)(C)O)(c2ccccc2)OC1=O [Example 5, (S)-3-((S)-1-(4-(1-(difluoromethyl)-2-oxo-1,2-dihydropyridin-4-yl)phenyl)ethyl)-6-(2-hydroxy-2-methylpropyl)-6-phenyl-1,3-oxazinan-2-one] | – | – |
| – | – | 4.55 | C[C@@H](c1ccc(-c2ccn(C3CC3)c(=O)c2)cc1)N1CC[C@](CC(C)(C)O)(c2ccccc2F)OC1=O [Example 88, (S)-3-((S)-1-(4-(1-cyclopropyl-2-oxo-1,2-dihydropyridin-4-yl)phenyl)ethyl)-6-(2-fluorophenyl)-6-(2-hydroxy-2-methylpropyl)-1,3-oxazinan-2-one] | – | – |
| 4.47 | 4.55 | 4.39 | C[C@@H](c1ccc(-c2ccc(=O)n(CC(F)(F)F)c2)cc1)N1CC[C@](CC(C)(C)O)(c2ccccc2)OC1=O [Example 67, (S)-6-(2-hydroxy-2-methylpropyl)-3-((S)-1-(4-(6-oxo-1-(2,2,2-trifluoroethyl)-1,6-dihydropyridin-3-yl)phenyl)ethyl)-6-phenyl-1,3-oxazinan-2-one] | – | – |
| 4.74 | – | – | CC[C@@H](c1ccc(-c2ccc(=O)n(C)c2)cc1)N1CC[C@](CC(C)(C)O)(c2ccccc2)OC1=O [Example 54, (S)-6-(2-hydroxy-2-methylpropyl)-3-((S)-1-(4-(1-methyl-6-oxo-1,6-dihydropyridin-3-yl)phenyl)propyl)-6-phenyl-1,3-oxazinan-2-one] | 9.1% | – |
| 4.62 | 5.22 | 4.77 | C[C@@H](c1ccc(-c2ccc(=O)[nH]c2)cc1)N1CC[C@](CC(C)(C)C#N)(c2ccccc2)OC1=O [Example 71, 2,2-dimethyl-3-((R)-2-oxo-3-((S)-1-(4-(6-oxo-1,6-dihydropyridin-3-yl)phenyl)ethyl)-6-phenyl-1,3-oxazinan-6-yl)propanenitrile] | – | – |
| 4.62 | 4.60 | 4.74 | C[C@@H](c1ccc(-c2cc[nH]c(=O)c2)cc1)N1CC[C@](CC(C)(C)C#N)(c2ccccc2)OC1=O [Example 14, 2,2-dimethyl-3-((R)-2-oxo-3-((S)-1-(4-(2-oxo-1,2-dihydropyridin-4-yl)phenyl)ethyl)-6-phenyl-1,3-oxazinan-6-yl)propanenitrile] | – | – |
| 4.60 | < 4.30 | < 4.30 | CCn1ccc(-c2ccc([C@H](C)N3CC[C@](CC(C)(C)O)(c4ccccc4)OC3=O)cc2)cc1=O [Example 65, (S)-3-((S)-1-(4-(1-ethyl-2-oxo-1,2-dihydropyridin-4-yl)phenyl)ethyl)-6-(2-hydroxy-2-methylpropyl)-6-phenyl-1,3-oxazinan-2-one] | – | – |
| 4.55 | 4.37 | 4.33 | CC(C)n1ccc(-c2ccc([C@H](C)N3CC[C@](CC(C)(C)O)(c4ccccc4)OC3=O)cc2)cc1=O [Example 68, (S)-6-(2-hydroxy-2-methylpropyl)-3-((S)-1-(4-(1-isopropyl-2-oxo-1,2-dihydropyridin-4-yl)phenyl)ethyl)-6-phenyl-1,3-oxazinan-2-one] | – | – |

Reference: patent EP2424865B1 (Boehringer Ingelheim International GmbH, priority 2009, dated 2010)
